Literature values as cited in patent US6395296B1, “Soluble double metal salt of group IA and IIA of hydroxycitric acid, process of preparing the same and its use in beverages and other food products without effecting their flavor and properties” (priority 1997, dated 2002).

What was measured:
[1] = system: ATP dependent citrate-lyase; conditions: key enzyme in diverting carbohydrate to fatty acids and cholesterol synthesis; Sullivan et al., Sergio
[2] = system: conversion of excess carbohydrates to fat; conditions: in animals; established by several scientists including at Hoffman-La Roche

O=C(O)CC(O)(C(=O)O)C(O)C(=O)O (single isomer, unassigned; (-)) [HCA, (−) Hydroxycitric acid]
inhibition of ATP dependent citrate-lyase [1]: inhibit | conversion of excess carbohydrates to fat [2]: prevents the conversion of excess carbohydrates to fat
